In patent US20240246932A1 (Merck Sharp & Dohme LLC, priority 2021, published 2024) one finds IC50 data, which are given here for 24 compounds.

For the test, the target named is human NaV 1.8 channels stably expressed in HEK 293 cells (Homo sapiens (Human), UniProt Q9Y5Y9). Put plainly: Nav1.8 Qube automated patch-clamp assay. Format: cell-based. The settings on record: human NaV1.8 in HEK 293 cells, whole-cell voltage clamp, room temperature; read-out: IC50 values (nM) for Examples in the Nav1.8 Qube Assay. How it is done:
Compounds were tested on human NaV 1.8 and NaV1.5 channels stably expressed in human embryo kidney (HEK) 293 cells. Sodium current measurements on Qube® were conducted as follows: automated 384-well patch-clamp assays on the Qube® platform (Sophion Biosciences) were used to measure the inhibition of sodium flow through human NaV1.8 and NaV1.5 channels. Whole-cell voltage-clamp recordings were performed in QChips® (Sophion Biosciences) at room temperature. NaV1.8 current measurements on Qube® were obtained as follows: NaV1.8 currents were elicited with a 10 second 1 Hertz (Hz) pulse train from a holding potential of −90 millivolts (mV), delivered to the cells once per minute in the control condition (DMSO only) and after compound addition. The 1 hertz pulse train stimulation consisted of ten test pulses to 10 millivolt (mV) for 20 milliseconds (ms), each of which was followed by a 980 millisecond repolarization to −67 millivolts. At the end of the 10 second pulse train stimulation, a 5 second hyperpolarization step to −100 millivolt (mV) was used to recover NaV1.8 from fast inactivation. The peak currents elicited by the 1st and 10th test pulses were used to determine IC50 values for resting inhibition and inactivated state inhibition. NaV1.5 current measurements on Qube® were obtained as follows: NaV1.5 currents were elicited with a 20 second 3 Hertz pulse train in the control condition (DMSO only) and after compound addition. The pulse train consisted of sixty 20 millisecond test pulses to 0 millivolt from a holding potential of −80 millivolt (mV). The average peak currents elicited by the last 3 test pulses were used to determine IC50 values for NaV1.5 inhibition.
The following buffers were used for the Qube® recordings: External buffer for NaV1.8 Qube® recording: 150 NaCl, 2 CaCl2, 5 KCl, 1 MgCl2, 10 HEPES, 12 Dextrose; External buffer for Qube® NaV1.5 recording: 120 N-Methyl-D-Glucamine, 40 NaCl, 1 KCl, 2.7 CaCl2), 5 HEPES, 0.5 MgCl2; and Internal buffer for Qube® recording: 120 CsF, 30 CsCl, 10 EGTA, 5 HEPES, 5 NaF, 2 MgCl2.
For all Qube® experiments offline analysis was used to determine percent inhibition as a function of drug concentration. IC50 values were determined by fitting to the Hill equation.
(In general: In patch-clamp work, channel activity is measured electrically.)

Molecules are shown by their SMILES.

human NaV 1.8 channels stably expressed in HEK 293 cells, sequence (Q9Y5Y9 whole entry): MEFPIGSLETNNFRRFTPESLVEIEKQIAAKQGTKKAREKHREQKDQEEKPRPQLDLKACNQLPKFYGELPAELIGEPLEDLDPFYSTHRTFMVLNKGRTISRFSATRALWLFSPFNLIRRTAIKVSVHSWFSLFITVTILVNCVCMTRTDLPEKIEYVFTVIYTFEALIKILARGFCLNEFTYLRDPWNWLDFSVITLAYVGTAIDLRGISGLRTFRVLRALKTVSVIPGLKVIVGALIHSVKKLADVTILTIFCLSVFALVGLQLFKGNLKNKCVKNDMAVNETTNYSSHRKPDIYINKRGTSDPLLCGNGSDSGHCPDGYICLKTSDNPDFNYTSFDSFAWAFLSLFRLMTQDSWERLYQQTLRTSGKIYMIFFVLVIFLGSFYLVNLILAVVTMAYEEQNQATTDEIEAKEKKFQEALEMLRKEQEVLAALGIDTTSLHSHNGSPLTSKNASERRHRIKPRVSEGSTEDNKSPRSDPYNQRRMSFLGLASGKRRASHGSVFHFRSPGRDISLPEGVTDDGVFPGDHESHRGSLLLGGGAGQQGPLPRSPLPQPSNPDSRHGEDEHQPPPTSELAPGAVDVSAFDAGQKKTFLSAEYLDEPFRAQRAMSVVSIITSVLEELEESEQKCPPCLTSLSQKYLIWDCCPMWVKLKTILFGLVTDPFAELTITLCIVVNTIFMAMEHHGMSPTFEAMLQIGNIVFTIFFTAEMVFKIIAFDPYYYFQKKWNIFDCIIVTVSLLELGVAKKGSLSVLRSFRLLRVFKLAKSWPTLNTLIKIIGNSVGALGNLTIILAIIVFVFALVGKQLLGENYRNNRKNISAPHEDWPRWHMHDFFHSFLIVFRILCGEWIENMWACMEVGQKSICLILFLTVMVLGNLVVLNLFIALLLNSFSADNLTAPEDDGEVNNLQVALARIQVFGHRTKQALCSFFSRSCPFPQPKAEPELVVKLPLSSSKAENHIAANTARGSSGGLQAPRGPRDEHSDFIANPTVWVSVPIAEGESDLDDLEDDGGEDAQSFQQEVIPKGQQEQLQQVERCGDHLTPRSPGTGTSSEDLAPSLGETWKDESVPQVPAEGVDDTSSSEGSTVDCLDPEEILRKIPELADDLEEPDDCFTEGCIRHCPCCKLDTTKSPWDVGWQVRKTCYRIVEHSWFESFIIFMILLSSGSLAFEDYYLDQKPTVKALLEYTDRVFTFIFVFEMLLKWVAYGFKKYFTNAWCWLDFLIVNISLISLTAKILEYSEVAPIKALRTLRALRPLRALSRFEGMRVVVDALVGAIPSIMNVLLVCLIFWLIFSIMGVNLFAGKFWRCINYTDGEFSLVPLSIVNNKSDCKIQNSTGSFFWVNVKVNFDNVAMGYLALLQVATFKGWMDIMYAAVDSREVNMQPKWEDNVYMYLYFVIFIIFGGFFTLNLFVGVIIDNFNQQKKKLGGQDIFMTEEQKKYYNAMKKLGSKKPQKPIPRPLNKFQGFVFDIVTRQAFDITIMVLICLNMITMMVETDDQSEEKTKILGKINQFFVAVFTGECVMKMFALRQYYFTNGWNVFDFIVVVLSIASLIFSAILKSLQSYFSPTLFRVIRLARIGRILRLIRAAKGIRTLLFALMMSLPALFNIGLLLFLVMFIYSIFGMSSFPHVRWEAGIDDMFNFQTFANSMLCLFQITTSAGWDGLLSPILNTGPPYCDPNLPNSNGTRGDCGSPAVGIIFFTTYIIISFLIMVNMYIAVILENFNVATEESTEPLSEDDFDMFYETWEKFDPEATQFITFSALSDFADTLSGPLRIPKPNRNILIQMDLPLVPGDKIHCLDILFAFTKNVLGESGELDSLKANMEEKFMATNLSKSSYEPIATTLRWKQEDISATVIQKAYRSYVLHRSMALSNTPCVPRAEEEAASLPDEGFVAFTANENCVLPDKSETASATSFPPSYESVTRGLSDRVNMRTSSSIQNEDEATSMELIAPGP

Take `C[C@@H]1C(=O)NCCN1C(=O)NC(c1cnc(C(F)(F)F)c(Cl)c1)c1csc(C(F)(F)F)n1` (single isomer, unassigned) [Example 84A, (2R)-N-((R or S)-(5-chloro-6-(trifluoromethyl)pyridin-3-yl)(2-(trifluoromethyl)thiazol-4-yl)methyl)-2-methyl-3-oxopiperazine-1-carboxamide]: the half-inhibitory concentration (IC50) was 16.2 nM.

As to `C[C@@H]1C(=O)NCCN1C(=O)NC(c1ccc(OC(F)(F)F)nc1)c1ccc(F)c(Cl)c1F` (single isomer, unassigned) [Example 4B, (2R)-N-((S or R)-(3-chloro-2,4-difluorophenyl)(6-(trifluoromethoxy)pyridin-3-yl)methyl)-2-methyl-3-oxopiperazine-1-carboxamide], the concentration for half-maximal inhibition (IC50) is 25.7 nM.

As for `C[C@@H]1C(=O)NCCN1C(=O)NC(c1ccc(C(F)(F)F)nc1)c1ccc(F)c(Cl)c1F` (single isomer, unassigned) [Example 15A], the IC50 was 4.74 nM.

Regarding `O=C1NCCN(C(=O)NC(c2cnc(C(F)(F)F)c(F)c2)c2ccc(F)c(Cl)c2F)C1C1CC1` (single isomer, unassigned) [Example 37B, N-((R or S)-(3-chloro-2,4-difluorophenyl)(5-fluoro-6-(trifluoro-methyl)pyridin-3-yl)methyl)-(S or R)-2-cyclopropyl-3-oxopiperazine-1-carboxamide], the half-maximal inhibitory concentration (IC50) amounted to 188 nM.

With `C[C@@H]1C(=O)NCCN1C(=O)NC(c1ccc(F)c(Cl)c1)c1ccn(C(F)F)n1` (single isomer, unassigned) [Example 66B], the half-maximal inhibitory concentration (IC50) worked out at 82.3 nM.

`C[C@@H]1C(=O)NCCN1C(=O)NC(c1ccc(F)c(Cl)c1)c1cnn(CC(F)(F)F)c1` (single isomer, unassigned) [Example 67A]: the IC50 stood at 890 nM.

Turning to `C[C@@H]1C(=O)NCCN1C(=O)NC(c1ccc(OC(F)(F)F)c(Cl)c1)c1cnc(C(F)(F)F)c(Cl)c1` (single isomer, unassigned) [Example 22A, (2R)-N-((R or S)-(3-chloro-4-(trifluoro-methoxy)phenyl)(5-chloro-6-(trifluoro-methyl)pyridin-3-yl)methyl)-2-methyl-3-oxopiperazine-1-carboxamide], the IC50 turned out to be 0.31 nM.

Regarding `C[C@@H]1C(=O)NCCN1C(=O)NC(c1ccc(Cl)cc1)c1ccc(C(F)(F)F)nc1` (single isomer, unassigned) [Example 17A, (2R)-N-((R or S)-(4-chlorophenyl)(6-(trifluoromethyl)pyridin-3-yl)methyl)-2-methyl-3-oxopiperazine-1-carboxamide], the IC50 came to 101 nM.

On to `O=C1CN(C(=O)NC(c2ccc(Cl)c(C(F)(F)F)n2)c2ccc(F)c(Cl)c2F)CCN1` (single isomer, unassigned) [Example 78A, N-((R or S)-(3-chloro-2,4-difluorophenyl)(5-chloro-6-(trifluoro-methyl)pyridin-2-yl)methyl)-3-oxopiperazine-1-carboxamide], for which the IC50 turned out to be 15.3 nM.

As to `O=C1CN(C(=O)NC(c2ccc(OCC(F)(F)F)nc2)c2ccc(F)c(Cl)c2)CCN1` (single isomer, unassigned) [Example 2A, N-((R or S)-(3-chloro-4-fluorophenyl)(6-(2,2,2-trifluoro-ethoxy)pyridin-3-yl)methyl)-3-oxopiperazine-1-carboxamide], the 50% inhibitory concentration (IC50) turned out to be 8.98 nM.

For `CC(C)C1C(=O)NCCN1C(=O)NC(c1ccc(C(F)(F)F)nc1)c1ccc(F)c(Cl)c1F` (single isomer, unassigned) [Example 39A, N-((R or S)-(3-chloro-2,4-difluorophenyl)(6-(trifluoromethyl)pyridin-3-yl)methyl)-(R or S)-2-isopropyl-3-oxo-piperazine-1-carboxamide], the IC50 amounted to 2630 nM.

With `C[C@@H]1C(=O)NCCN1C(=O)NC(c1ccc(Cl)c(C#N)c1)c1ccc(F)c(C(F)(F)F)n1` (single isomer, unassigned) [Example 52B, (2R)-N-((S or R)-(4-chloro-3-cyano-phenyl)(5-fluoro-6-(trifluoromethyl)pyridin-2-yl)methyl)-2-methyl-3-oxopiperazine-1-carboxamide], the IC50 was 64.5 nM.

`C[C@@H]1C(=O)NCCN1C(=O)NC(c1ccc(OCC(F)(F)F)nc1)c1ccc(F)c(C(F)(F)F)n1` (single isomer, unassigned) [Example 50B, (2R)-N-((S or R)-(5-fluoro-6-(trifluoro-methyl)pyridin-2-yl)(6-(2,2,2-trifluoro-ethoxy)pyridin-3-yl)methyl)-2-methyl-3-oxopiperazine-1-carboxamide]: the concentration for half-maximal inhibition (IC50) was found to be 8.55 nM.

Turning to `C[C@@H]1C(=O)NCCN1C(=O)NC(c1ccc(OC(F)(F)F)c(F)c1)c1cnc(C(F)(F)F)c(Cl)c1` (single isomer, unassigned) [Example 21B, (2R)-N-((S or R)-(5-chloro-6-(trifluoro-methyl)pyridin-3-yl)(3-fluoro-4-(trifluoro-methoxy)phenyl)methyl)-2-methyl-3-oxo-piperazine-1-carboxamide], the IC50 is 7.71 nM.

Regarding `C[C@@H]1C(=O)NCCN1C(=O)NC(c1cnc(OCC(F)(F)F)c(F)c1)c1ccc(F)c(Cl)c1F` (single isomer, unassigned) [Example 10A, (2R)-N-((R or S)-(3-chloro-2,4-difluorophenyl)(5-fluoro-6-(2,2,2-trifluoroethoxy)pyridin-3-yl)methyl)-2-methyl-3-oxopiperazine-1-carboxamide], the IC50 worked out at 1.18 nM.

`O=C1CN(C(=O)NC(c2ccc(OCC(F)(F)F)nc2)c2ccc(F)c(Cl)c2F)CCN1` (single isomer, unassigned) [Example 8A, N-((R or S)-(3-chloro-2,4-difluorophenyl)(6-(2,2,2-trifluoroethoxy)pyridin-3-yl)methyl)-3-oxopiperazine-1-carboxamide]: the concentration for half-maximal inhibition (IC50) was 4.46 nM.

For `C[C@@H]1C(=O)NCCN1C(=O)NC(c1ccc(OC(F)(F)F)cc1)c1cnc(C(F)(F)F)c(Cl)c1` (single isomer, unassigned) [Example 20A, (2R)-N-((R or S)-(5-chloro-6-(trifluoro-methyl)pyridin-3-yl)(4-(trifluoromethoxy)phenyl)methyl)-2-methyl-3-oxopiperazine-1-carboxamide], the IC50 was determined as 4.01 nM.

With `C[C@@H]1C(=O)NCCN1C(=O)NC(c1ccc(OCC(F)(F)F)nc1)c1ccc(F)c(Cl)c1F` (single isomer, unassigned) [Example 1A], the half-maximal inhibitory concentration (IC50) was 1.09 nM.

In the case of `C[C@@H]1C(=O)NCCN1C(=O)NC(c1cnc(OCC(F)(F)F)c(F)c1)c1ccc(F)c(Cl)c1F` (single isomer, unassigned) [Example 10B, (2R)-N-((S or R)-(3-chloro-2,4-difluorophenyl)(5-fluoro-6-(2,2,2-trifluoroethoxy)pyridin-3-yl)methyl)-2-methyl-3-oxopiperazine-1-carboxamide], the IC50 turned out to be 28 nM.

Turning to `C[C@@H]1C(=O)NCCN1C(=O)NC(c1ccc(F)c(C(F)(F)F)n1)c1ccc(F)c(Cl)c1F` (single isomer, unassigned) [Example 60B, (2R)-N-((S or R)-(3-chloro-2,4-difluoro-phenyl)(5-fluoro-6-(trifluoromethyl)pyridin-2-yl)methyl)-2-methyl-3-oxopiperazine-1-carboxamide], the half-maximal inhibitory concentration (IC50) was found to be 8.29 nM.

As to `C[C@@H]1C(=O)NCCN1C(=O)NC(c1ccc(F)c(Cl)c1)c1ccc(F)c(OCC(F)(F)F)n1` (single isomer, unassigned) [Example 70A], the concentration for half-maximal inhibition (IC50) stood at 51.4 nM.

Regarding `C[C@@H]1C(=O)NCCN1C(=O)NC(c1ccc(F)c(Cl)c1)c1cc(C(F)(F)F)nn1C` (single isomer, unassigned) [Example 86A, (2R)-N-((R or S)-(3-chloro-4-fluoro-phenyl)(1-methyl-3-(trifluoro-methyl)-1H-pyrazol-5-yl)methyl)-2-methyl-3-oxopiperazine-1-carboxamide], the IC50 was determined as 3.59 nM.

Regarding `C[C@@H]1C(=O)NCCN1C(=O)NC(c1ccc(F)c(Cl)c1)c1cnc(C(F)(F)F)c(Cl)c1` (single isomer, unassigned) [Example 26B, (2R)-N-((S or R)-(3-chloro-4-fluoro-phenyl)(5-chloro-6-(trifluoromethyl)pyridin-3-yl)methyl)-2-methyl-3-oxopiperazine-1-carboxamide], the 50% inhibitory concentration (IC50) amounted to 3.81 nM.

As for `C[C@@H]1C(=O)NCCN1C(=O)NC(c1cnc(OCC(F)(F)F)s1)c1ccc(F)c(Cl)c1F` (single isomer, unassigned) [Example 13A, (2R)-N-((R or S)-(3-chloro-2,4-difluoro-phenyl)(2-(2,2,2-tri-fluoroethoxy)thiazol-5-yl)methyl)-2-methyl-3-oxopiperazine-1-carboxamide], the IC50 came out at 2.13 nM.

In general, IC50 refers to the concentration that gives 50% inhibition.
